# Where a SMILES comes first, the peptide text is derived from it. [ ]: non-standard residue; d: D form. Dolaproine = CO[C@@H]([C@@H]1CCCN1)[C@@H](C)C(=O)O; Dil = CC[C@H](C)[C@H](NC)[C@@H](CC(=O)O)OC; NMeV = CN[C@H](C(=O)O)C(C)C
# Tested on: TNBC tumor tissue
# Test: Single-cell RNA sequencing of tumors
# Format: in vivo, mouse
# Conditions: scRNA-Seq, payload effect
# Procedure: The flash-frozen tissue samples (25 mg) were collected and stored at −80° C. until processing. Chromium Next GEM RNA Profiling Sample Fixation Kit (PN-1000414, 10× Genomics, Pleasanton, CA, USA) was used to fix tissue by mixing 1 mL of fixation buffer with 25 mg of tissue, followed by fine mince and incubation at 4° C. for 16-24 hours without agitation. After fixation, tissue samples were centrifuged, washed with chilled PBS, and resuspended in 1 mL of tissue resuspension buffer. The fixed tissues supplemented with pre-warmed dissociation buffer were dissociated using an Octo Dissociator according to the manufacturer's instructions. […] Cell concentration was determined using an automated cell counter with fluorescent nucleic acid staining. […]
# A 10× single-cell library was prepared using the Chromium Fixed RNA Kit (Cat #1000497, 10× Genomics). […] The quality control of cDNA was evaluated using an Agilent Bioanalyzer aiming for the final library molecules with P5 and P7 priming sites used in Illumina sequencers. For each cDNA sample, single-cell library construction was started using the 10× barcoded ligated probe products, and sequenced using the NovaSeq 6000 flow cell 100-cycle kit (Illumina, San Diego, CA, USA) in a Read1:i7:i5:Read2 format of 28:10:10:90 bp at 10× Genomics. […]
smiles,measurement,value
"CC[C@H](C)[C@@H]([C@@H](CC(=O)N1CCC[C@H]1[C@H](OC)[C@@H](C)C(=O)N[C@@H](Cc1ccccc1)C(=O)O)OC)N(C)C(=O)[C@@H](NC(=O)[C@@H](NC)C(C)C)C(C)C [MMAF, Monomethylauristatin F] (H-[NMeV]V[Dil][Dolaproine]F-OH)",tumor cell distribution in mitotic stages,inhibition of cell proliferation

# From patent US20260345802A1, “ANTIBODY-DRUG CONJUGATES AND LINKERS AND METHODS OF USE THEREOF” (priority 2023, published 2026)
